Assays:
MDA-MB-231 [1] = test: Antiproliferative activity against human MDA-MB-231 cells assessed as inhibition of cell growth incubated for 72 hrs by MTT assay; type: functional, cell-based; conditions: MDA-MB-231, 72 h
MDA-MB-231 [2] = test: Induction of apoptosis in human MDA-MB-231 cells assessed as late apoptotic cells at 10 uM incubated for 24 hrs by annexin V-FITC/propidium iodide staining based flow cytometry analysis (reference value: 0.113%); type: functional
A549 = test: Antiproliferative activity against human A549 cells assessed as inhibition of cell growth incubated for 72 hrs by MTT assay; type: functional, cell-based; conditions: A549, 72 h
[3] = molecular target: Cyclin-dependent kinase 6 (Homo sapiens, UniProt Q00534); test: Covalent inhibition of CDK6 (unknown origin) using histone H1 as substrate incubated for 10 mins in presence of [gamma-32P]ATP by radioactivity based kinase assay
[4] = molecular target: Cyclin-dependent kinase 4 (Homo sapiens, UniProt P11802); test: Covalent inhibition of CDK4 (unknown origin) using histone H1 as substrate incubated for 10 mins in presence of [gamma-32P]ATP by radioactivity based kinase assay
MDA-MB-231 [5] = test: Induction of apoptosis in human MDA-MB-231 cells assessed as apoptosis rate at 10 uM incubated for 24 hrs by annexin V-FITC/propidium iodide staining based flow cytometry analysis; type: functional
[6] = molecular target: Cyclin-dependent kinase 12 (Homo sapiens, UniProt Q9NYV4); test: Covalent inhibition of CDK12 (unknown origin) using histone H1 as substrate incubated for 10 mins in presence of [gamma-32P]ATP by radioactivity based kinase assay
MDA-MB-231 [7] = test: Induction of apoptosis in human MDA-MB-231 cells assessed as early apoptotic cells at 10 uM incubated for 24 hrs by annexin V-FITC/propidium iodide staining based flow cytometry analysis (reference value: 3.39%); type: functional
[8] = molecular target: Cyclin-dependent kinase 9 (Homo sapiens, UniProt P50750); test: Covalent inhibition of CDK9 (unknown origin) using histone H1 as substrate incubated for 10 mins in presence of [gamma-32P]ATP by radioactivity based kinase assay
MDA-MB-231 [9] = test: Cell cycle arrest in human MDA-MB-231 cells assessed as accumulation of cells at S phase at 10 uM incubated for 24 hrs by propidium iodide staining based assay (reference value: 25.09%); type: functional
MDA-MB-231 [10] = test: Cell cycle arrest in human MDA-MB-231 cells assessed as accumulation of cells at G2/M phase at 10 uM incubated for 24 hrs by propidium iodide staining based assay (reference value: 20.49%); type: functional
MDA-MB-231 [11] = test: Induction of apoptosis in human MDA-MB-231 cells assessed as viable cells at 10 uM incubated for 24 hrs by annexin V-FITC/propidium iodide staining based flow cytometry analysis (reference value: 96.5%); type: functional; conditions: read-out: Activity
MCF7 [12] = test: Antiproliferative activity against human MCF7 cells assessed as inhibition of cell growth incubated for 72 hrs by MTT assay; type: functional, cell-based; conditions: MCF7, 72 h
MDA-MB-231 [13] = test: Cell cycle arrest in human MDA-MB-231 cells assessed as accumulation of cells at G0/G1 phase at 10 uM incubated for 24 hrs by propidium iodide staining based assay (reference value: 54.43%); type: functional
MDA-MB-231 [14] = test: Induction of apoptosis in human MDA-MB-231 cells assessed as necrotic cells at 10 uM incubated for 24 hrs by annexin V-FITC/propidium iodide staining based flow cytometry analysis (reference value: 0.034%); type: functional
HepG2 = test: Antiproliferative activity against human HepG2 cells assessed as inhibition of cell growth incubated for 72 hrs by MTT assay; type: functional, cell-based; conditions: HepG2, 72 h
MCF7 [15] = test: Antiproliferative activity against palbociclib-resistant human MCF7 cells assessed as inhibition of cell growth incubated for 72 hrs by MTT assay; type: functional, cell-based; conditions: MCF7, 72 h
[16] = molecular target: T1, Cyclin-dependent kinase 4/6 (Homo sapiens) (UniProt P11802+Q00534); test: Inhibition of CDK4/CDK6 signaling pathway in human MDA-MB-231 cells assessed as inhibition of CDK4 expression level at 1 to 8 uM incubated for 24 hrs by western blot assay; type: cell-based; conditions: dose 1-8 µM
[17] = molecular target: T1, Cyclin-dependent kinase 4/6 (Homo sapiens); test: Inhibition of CDK4/CDK6 signaling pathway in human MDA-MB-231 cells assessed as reduction of RB phosphorylation at Ser780 residue level at 1 to 8 uM incubated for 24 hrs by western blot assay; type: cell-based; conditions: dose 1-8 µM
[18] = Resistance factor, ratio of IC50 for palbociclib-resistant human MCF7 cells to IC50 for human MCF7 cells; type: functional
[19] = molecular target: T1, Cyclin-dependent kinase 4/6 (Homo sapiens); test: Inhibition of CDK4/CDK6 signaling pathway in human MDA-MB-231 cells assessed as inhibition of CDK6 expression level at 1 to 8 uM incubated for 24 hrs by western blot assay; type: cell-based; conditions: dose 1-8 µM

Sequence of Cyclin-dependent kinase 6 (Q00534 whole entry): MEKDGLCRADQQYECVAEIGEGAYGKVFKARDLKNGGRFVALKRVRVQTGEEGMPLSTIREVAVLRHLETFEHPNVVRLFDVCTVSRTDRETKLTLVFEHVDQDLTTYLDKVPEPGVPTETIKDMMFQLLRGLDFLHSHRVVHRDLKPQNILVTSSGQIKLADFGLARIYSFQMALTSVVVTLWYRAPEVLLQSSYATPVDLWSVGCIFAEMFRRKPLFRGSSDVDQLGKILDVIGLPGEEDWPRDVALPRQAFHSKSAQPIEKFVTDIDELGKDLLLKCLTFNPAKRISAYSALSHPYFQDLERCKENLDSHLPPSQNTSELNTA
T1 sequence (P11802 whole entry, looked up): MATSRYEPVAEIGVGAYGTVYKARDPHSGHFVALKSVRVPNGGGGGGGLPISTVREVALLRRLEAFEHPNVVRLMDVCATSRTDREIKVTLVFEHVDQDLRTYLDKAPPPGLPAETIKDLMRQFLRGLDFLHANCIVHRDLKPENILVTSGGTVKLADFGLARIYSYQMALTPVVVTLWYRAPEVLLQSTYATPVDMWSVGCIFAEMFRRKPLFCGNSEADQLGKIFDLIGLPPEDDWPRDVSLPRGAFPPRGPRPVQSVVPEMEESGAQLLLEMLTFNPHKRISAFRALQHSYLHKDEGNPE
T1 sequence (Q00534 whole entry, looked up): as the sequence (Q00534 whole entry) above
Sequence of Cyclin-dependent kinase 4 (P11802 whole entry): as the sequence (P11802 whole entry, looked up) above
Sequence of Cyclin-dependent kinase 12 (Q9NYV4 whole entry): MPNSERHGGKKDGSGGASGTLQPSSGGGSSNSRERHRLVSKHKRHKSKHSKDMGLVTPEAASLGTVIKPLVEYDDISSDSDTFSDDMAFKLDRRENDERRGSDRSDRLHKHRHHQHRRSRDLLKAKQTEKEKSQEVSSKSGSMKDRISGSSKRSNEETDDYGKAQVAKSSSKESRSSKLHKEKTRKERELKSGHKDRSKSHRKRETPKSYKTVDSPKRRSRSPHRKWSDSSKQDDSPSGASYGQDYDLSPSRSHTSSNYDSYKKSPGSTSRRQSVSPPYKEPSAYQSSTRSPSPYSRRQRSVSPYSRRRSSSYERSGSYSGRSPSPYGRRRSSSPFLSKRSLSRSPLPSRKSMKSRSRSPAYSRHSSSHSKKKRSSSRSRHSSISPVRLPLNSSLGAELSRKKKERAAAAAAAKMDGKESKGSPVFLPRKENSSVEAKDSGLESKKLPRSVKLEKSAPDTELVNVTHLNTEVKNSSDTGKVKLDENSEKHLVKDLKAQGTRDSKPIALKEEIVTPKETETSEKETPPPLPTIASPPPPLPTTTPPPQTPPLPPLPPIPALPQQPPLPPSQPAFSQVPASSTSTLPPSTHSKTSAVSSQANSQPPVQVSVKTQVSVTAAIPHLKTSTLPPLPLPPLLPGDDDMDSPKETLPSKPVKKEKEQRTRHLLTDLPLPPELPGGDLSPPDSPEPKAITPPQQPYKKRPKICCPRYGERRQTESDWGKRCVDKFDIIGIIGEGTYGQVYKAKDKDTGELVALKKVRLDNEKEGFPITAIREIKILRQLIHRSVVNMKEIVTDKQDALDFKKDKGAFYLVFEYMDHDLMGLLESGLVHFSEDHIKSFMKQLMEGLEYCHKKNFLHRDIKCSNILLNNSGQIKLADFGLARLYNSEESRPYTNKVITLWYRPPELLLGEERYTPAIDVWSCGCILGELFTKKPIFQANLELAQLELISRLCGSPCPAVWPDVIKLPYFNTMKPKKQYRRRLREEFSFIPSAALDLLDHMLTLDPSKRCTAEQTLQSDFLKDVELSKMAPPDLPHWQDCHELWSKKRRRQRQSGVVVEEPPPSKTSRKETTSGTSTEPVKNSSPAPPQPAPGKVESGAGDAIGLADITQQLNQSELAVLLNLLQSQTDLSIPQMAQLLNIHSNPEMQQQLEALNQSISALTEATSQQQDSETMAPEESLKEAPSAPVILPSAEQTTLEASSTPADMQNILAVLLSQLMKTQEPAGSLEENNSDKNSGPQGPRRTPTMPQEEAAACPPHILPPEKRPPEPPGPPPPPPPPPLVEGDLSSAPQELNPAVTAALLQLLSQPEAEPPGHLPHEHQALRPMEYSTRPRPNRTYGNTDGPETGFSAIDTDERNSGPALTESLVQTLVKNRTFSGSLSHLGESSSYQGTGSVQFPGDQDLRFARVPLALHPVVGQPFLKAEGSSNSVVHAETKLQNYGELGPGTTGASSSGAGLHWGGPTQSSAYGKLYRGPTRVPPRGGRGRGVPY
Sequence of Cyclin-dependent kinase 9 (P50750 whole entry): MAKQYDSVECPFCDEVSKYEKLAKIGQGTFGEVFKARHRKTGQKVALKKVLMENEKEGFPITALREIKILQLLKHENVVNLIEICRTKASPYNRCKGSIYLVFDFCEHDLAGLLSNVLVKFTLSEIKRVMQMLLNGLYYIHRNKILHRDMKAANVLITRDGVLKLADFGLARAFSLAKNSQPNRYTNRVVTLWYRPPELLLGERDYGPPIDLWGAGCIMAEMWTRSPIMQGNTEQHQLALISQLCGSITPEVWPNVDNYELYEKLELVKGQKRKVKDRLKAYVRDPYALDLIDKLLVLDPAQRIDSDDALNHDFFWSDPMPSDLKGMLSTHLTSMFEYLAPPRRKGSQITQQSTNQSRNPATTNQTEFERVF

Row | Structure (SMILES) | IC50 (MDA-MB-231 [1]) [µM] | IC50 (A549) [µM] | IC50 (MCF7 [12]) [µM] | IC50 (HepG2) [µM] | other results
1 | C=CC(=O)N1CCN(c2ccc(Nc3ncc4c(C)c(C(C)=O)c(=O)n(C5CCCC5)c4n3)nc2)CC1 | 5.26 | 9.75 | 0.62 | 9.55 | Activity (MDA-MB-231 [2]): 15.2%; IC50 [3]: 0.015 µM; IC50 [4]: 0.023 µM; Activity (MDA-MB-231 [5]): 55.5%; IC50 [6]: 0.89 µM; Activity (MDA-MB-231 [7]): 40.3%; IC50 [8]: > 1 µM; Activity (MDA-MB-231 [9]): 26.01%; Activity (MDA-MB-231 [10]): 13.78%; viability at 10 µM (MDA-MB-231 [11]): 43.8%; Activity (MDA-MB-231 [13]): 60.21%; Activity (MDA-MB-231 [14]): 0.689%
2 | COc1cc(/C=C/C(=O)NCC(=O)N2CCN(c3ccc(Nc4ncc5c(C)c(C(C)=O)c(=O)n(C6CCCC6)c5n4)nc3)CC2)ccc1O | 6.29 | 12.1 | > 20 | 10.6 | –
3 | COc1ccc(/C=C/C(=O)NCCCC(=O)N2CCN(c3ccc(Nc4ncc5c(C)c(C(C)=O)c(=O)n(C6CCCC6)c5n4)nc3)CC2)cc1OC | > 20 | 13 | > 20 | 13.7 | –
4 | COc1ccc(/C=C/C(=O)NCC(=O)N2CCN(c3ccc(Nc4ncc5c(C)c(C(C)=O)c(=O)n(C6CCCC6)c5n4)nc3)CC2)cc1OC | 8.96 | 14.4 | 2.33 | 11.7 | –
5 | CC(=O)c1c(C)c2cnc(Nc3ccc(N4CCN(C(=O)/C(C#N)=C/c5ccccc5)CC4)cn3)nc2n(C2CCCC2)c1=O | 5.68 | 9.57 | 0.42 | 9.11 | Activity (MDA-MB-231 [2]): 11%; IC50 [3]: 0.019 µM; IC50 [4]: 0.025 µM; Activity (MDA-MB-231 [5]): 63.1%; IC50 [6]: > 1 µM; Activity (MDA-MB-231 [7]): 52.1%; IC50 [8]: > 1 µM; Activity (MDA-MB-231 [9]): 24.58%; Activity (MDA-MB-231 [10]): 11.59%; viability at 10 µM (MDA-MB-231 [11]): 36.5%; Activity (MDA-MB-231 [13]): 63.83%; Activity (MDA-MB-231 [14]): 0.425%
6 | COc1ccc(/C=C/C(=O)NCCC(=O)N2CCN(c3ccc(Nc4ncc5c(C)c(C(C)=O)c(=O)n(C6CCCC6)c5n4)nc3)CC2)cc1OC | 7.2 | 11.8 | > 20 | 10.1 | –
7 | C/C=C/C(=O)N1CCN(c2ccc(Nc3ncc4c(C)c(C(C)=O)c(=O)n(C5CCCC5)c4n3)nc2)CC1 | 8.57 | 17.3 | 2.36 | > 20 | –
8 | CC(=O)c1c(C)c2cnc(Nc3ccc(N4CCN(C(=O)/C=C/C5CC5)CC4)cn3)nc2n(C2CCCC2)c1=O | 7.75 | 17.6 | 1.32 | > 20 | –
9 | COc1ccc(/C=C/C(=O)NCCCC(=O)N2CCN(c3ccc(Nc4ncc5c(C)c(C(C)=O)c(=O)n(C6CCCC6)c5n4)nc3)CC2)cc1O | 8.21 | > 20 | 2.69 | > 20 | –
10 | CC(=O)c1c(C)c2cnc(Nc3ccc(N4CCNCC4)cn3)nc2n(C2CCCC2)c1=O [PALBOCICLIB] | 5.62 | 8.07 | 0.78 | 9.92 | Activity (MDA-MB-231 [2]): 26.1%; Activity (MDA-MB-231 [5]): 73.7%; Activity (MDA-MB-231 [7]): 47.6%; Activity (MDA-MB-231 [9]): 16.99%; Activity (MDA-MB-231 [10]): 11.78%; viability at 10 µM (MDA-MB-231 [11]): 24.8%; IC50 (MCF7 [15]): 5.81 µM; Activity (MDA-MB-231 [13]): 71.23%; Activity (MDA-MB-231 [14]): 1.47%
11 | CC(=O)c1c(C)c2cnc(Nc3ccc(N4CCN(C(=O)/C=C/c5ccccc5)CC4)cn3)nc2n(C2CCCC2)c1=O | 6.73 | 14.4 | > 20 | 11.9 | –
12 | COc1cc(/C=C/C(=O)N2CCN(c3ccc(Nc4ncc5c(C)c(C(C)=O)c(=O)n(C6CCCC6)c5n4)nc3)CC2)ccc1O | 8.88 | > 20 | > 20 | > 20 | –
13 | CC(=O)c1c(C)c2cnc(Nc3ccc(N4CCN(C(=O)/C=C/C(F)(F)F)CC4)cn3)nc2n(C2CCCC2)c1=O | 0.51 | 1.55 | 0.48 | 5.1 | Activity (MDA-MB-231 [2]): 16.7%; inhibition [16]: Dose-Dependent Effect; IC50 [3]: 0.013 µM; inhibition [17]: Dose-Dependent Effect; IC50 [4]: 0.018 µM; Activity (MDA-MB-231 [5]): 79%; Ratio IC50 [18]: 1.1; IC50 [6]: > 1 µM; Activity (MDA-MB-231 [7]): 62.3%; IC50 [8]: > 1 µM; inhibition [19]: Dose-Dependent Effect; Activity (MDA-MB-231 [9]): 21.16%; Activity (MDA-MB-231 [10]): 10.14%; viability at 10 µM (MDA-MB-231 [11]): 20.6%; IC50 (MCF7 [15]): 0.53 µM; Activity (MDA-MB-231 [13]): 68.69%; Activity (MDA-MB-231 [14]): 0.445%
14 | COc1ccc(/C=C/C(=O)N2CCN(c3ccc(Nc4ncc5c(C)c(C(C)=O)c(=O)n(C6CCCC6)c5n4)nc3)CC2)cc1OC | > 20 | 16.1 | 1.85 | > 20 | –
15 | COC(=O)/C=C/CN1CCN(c2ccc(Nc3ncc4c(C)c(C(C)=O)c(=O)n(C5CCCC5)c4n3)nc2)CC1 | > 20 | 16.5 | > 20 | > 20 | –
